{"source": "patent US20120157433A1", "about": "“Heteroaryl Compounds as Kinase Inhibitors” (priority 2009, published 2012)", "data": [{"molecular_target": "Cdk9/cyclinT1 (Homo sapiens, UniProt P50750)", "sequence (P50750 whole entry)": "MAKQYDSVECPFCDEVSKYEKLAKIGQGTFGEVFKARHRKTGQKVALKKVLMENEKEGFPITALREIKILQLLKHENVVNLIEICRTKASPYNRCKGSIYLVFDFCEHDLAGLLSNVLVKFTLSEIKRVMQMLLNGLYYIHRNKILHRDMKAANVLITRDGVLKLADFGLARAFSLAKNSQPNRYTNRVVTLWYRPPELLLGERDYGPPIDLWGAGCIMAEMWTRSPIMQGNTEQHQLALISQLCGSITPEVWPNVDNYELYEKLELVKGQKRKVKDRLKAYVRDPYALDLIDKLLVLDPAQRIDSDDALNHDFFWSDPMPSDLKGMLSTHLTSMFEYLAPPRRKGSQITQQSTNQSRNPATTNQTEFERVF", "sequence (O60563 whole entry partner)": "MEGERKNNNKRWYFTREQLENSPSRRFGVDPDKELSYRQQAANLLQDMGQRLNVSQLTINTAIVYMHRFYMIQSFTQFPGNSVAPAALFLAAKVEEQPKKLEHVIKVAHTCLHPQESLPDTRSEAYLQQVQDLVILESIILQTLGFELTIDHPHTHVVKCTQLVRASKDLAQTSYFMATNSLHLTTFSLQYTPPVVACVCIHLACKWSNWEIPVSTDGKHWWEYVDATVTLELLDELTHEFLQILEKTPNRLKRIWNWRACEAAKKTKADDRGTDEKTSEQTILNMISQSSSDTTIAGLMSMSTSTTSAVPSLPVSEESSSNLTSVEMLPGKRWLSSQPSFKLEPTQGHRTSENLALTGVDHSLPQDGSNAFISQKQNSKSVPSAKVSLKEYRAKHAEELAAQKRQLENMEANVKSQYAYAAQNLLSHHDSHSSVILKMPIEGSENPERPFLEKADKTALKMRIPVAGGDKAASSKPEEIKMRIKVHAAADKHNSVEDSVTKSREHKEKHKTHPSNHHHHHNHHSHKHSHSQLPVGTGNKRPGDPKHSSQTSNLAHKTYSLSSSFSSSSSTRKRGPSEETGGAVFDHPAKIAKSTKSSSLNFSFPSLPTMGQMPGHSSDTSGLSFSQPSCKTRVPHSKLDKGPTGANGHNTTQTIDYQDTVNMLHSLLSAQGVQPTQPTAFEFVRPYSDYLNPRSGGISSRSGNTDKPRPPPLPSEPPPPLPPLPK", "test": "Cdk9/cyclinT1 kinase assay (IMAP or Alpha Screen protocol)", "conditions": "not given", "units": {"IC50": "nM"}, "values": [{"smiles": "O=C(Nc1cc(-c2ccccc2)c(Cl)cn1)[C@@H]1CCCNC1", "note": "[Example 1, (R)—N-(5-chloro-4-phenylpyridin-2-yl)piperidine-3-carboxamide]", "IC50": 20}, {"smiles": "O=C(Nc1cc(-c2cccc(F)c2)c(Cl)cn1)[C@@H]1CCCNC1", "note": "[Example 2, (R)-Piperidine-3-carboxylic acid [5-chloro-4-(3-fluoro-phenyl)-pyridin-2-yl]-amide]", "IC50": 10}, {"smiles": "COc1ccccc1-c1cc(NC(=O)[C@@H]2CCCNC2)ncc1Cl", "note": "[Example 3, (R)-Piperidine-3-carboxylic acid [5-chloro-4-(2-methoxy-phenyl)-pyridin-2-yl]-amide]", "IC50": "< 8"}, {"smiles": "COc1ccc(F)cc1-c1cc(NC(=O)[C@@H]2CCCNC2)ncc1Cl", "note": "[Example 4, (R)—N-(5-Chloro-4-(5-fluoro-2-methoxyphenyl)pyridin-2-yl)piperidine-3-carboxamide]", "IC50": "< 8"}, {"smiles": "CC(C)Oc1ccc(F)cc1-c1cc(NC(=O)[C@@H]2CCCNC2)ncc1Cl", "note": "[Example 5, (R)-Piperidine-3-carboxylic acid [5-chloro-4-(5-fluoro-2-isopropoxy-phenyl)-pyridin-2-yl]-amide]", "IC50": 2}, {"smiles": "O=C(Nc1cc(-c2cccc(OCc3cccc(F)c3)c2)c(Cl)cn1)[C@@H]1CCCNC1", "note": "[Example 6, (R)-Piperidine-3-carboxylic acid {5-chloro-4-[3-(3-fluoro-benzyloxy)-phenyl]-pyridin-2-yl}-amide]", "IC50": "< 8"}, {"smiles": "O=C(Nc1cc(-c2cccc(NCC3CCOCC3)c2)c(Cl)cn1)[C@@H]1CCCNC1", "note": "[Example 7, (R)—N-(5-chloro-4-(3-(((tetrahydro-2H-pyran-4-yl)methyl)amino)phenyl)pyridin-2-yl)piperidine-3-carboxamide]", "IC50": "< 8"}, {"smiles": "O=C(Nc1cc(-c2cccc(NCC3CCOCC3)c2)c(Cl)cn1)[C@H]1CCCNC1", "note": "[Example 8, (S)-Piperidine-3-carboxylic acid (5-chloro-4-{3-[(tetrahydro-pyran-4-ylmethyl)-amino]-phenyl}-pyridin-2-yl)-amide]", "IC50": 23}, {"smiles": "O=C(Nc1cc(-c2cc(F)cc(NCC3CCOCC3)c2)c(Cl)cn1)[C@@H]1CCCNC1", "note": "[Example 9, (R)—N-(5-Chloro-4-(3-fluoro-5-(((tetrahydro-2H-pyran-4-yl)-methyl)amino)phenyl)-pyridin-2-yl)piperidine-3-carboxamide]", "IC50": "< 8"}, {"smiles": "CC(C)(C)OC(=O)N1CCC[C@@H](C(=O)Nc2cc(-c3cc(F)cc(NCC4CCOCC4)c3)c(Cl)cn2)C1", "note": "[Example 10, (R)-3-(5-Chloro-4-{3-fluoro-5-[(tetrahydro-pyran-4-ylmethyl)-amino]-phenyl}-pyridin-2-ylcarbamoyl)-piperidine-1-carboxylic acid tert-butyl ester]", "IC50": 11}, {"smiles": "O=C(Nc1cc(-c2cc(F)cc(NCC3CCOCC3)c2)c(Cl)cn1)[C@H]1CCCNC1", "note": "[Example 11, (S)-Piperidine-3-carboxylic acid (5-chloro-4-{3-fluoro-5-[(tetrahydro-pyran-4-ylmethyl)-amino]-phenyl}-pyridin-2-yl)-amide]", "IC50": 11}, {"smiles": "O=C(Nc1cc(-c2cc(NCC3CCOCC3)ccc2F)c(Cl)cn1)[C@@H]1CCCNC1", "note": "[Example 12, (R)-Piperidine-3-carboxylic acid (5-chloro-4-{2-fluoro-5-[(tetrahydro-pyran-4-ylmethyl)-amino]-phenyl}-pyridin-2-yl)-amide]", "IC50": "< 8"}, {"smiles": "O=C(Nc1cc(-c2ccc(Cl)c(NCC3CCOCC3)c2)c(Cl)cn1)[C@@H]1CCCNC1", "note": "[Example 13, (R)—N-(5-Chloro-4-(4-chloro-3-(((tetrahydro-2H-pyran-4-yl)methyl)amino)phenyl)-pyridin-2-yl)piperidine-3-carboxamide]", "IC50": "< 8"}, {"smiles": "O=C(Nc1cc(-c2cc(F)cc(NCC3CCOCC3)c2)c(Cl)cn1)C1CNCCO1", "note": "(stereo not shown) [Example 14, Morpholine-2-carboxylic acid (5-chloro-4-{3-fluoro-5-[(tetrahydro-pyran-4-ylmethyl)-amino]-phenyl}-pyridin-2-yl)-amide]", "IC50": "< 8"}, {"smiles": "O=C(Nc1cc(-c2cc(NCC3CCOCC3)ccc2F)c(Cl)cn1)[C@H]1CNCCO1", "note": "[Example 15, (R)-Morpholine-2-carboxylic acid (5-chloro-4-{2-fluoro-5-[(tetrahydro-pyran-4-ylmethyl)-amino]-phenyl}-pyridin-2-yl)-amide]", "IC50": 16}]}, {"test_system": "neointima formation", "test": "not given", "conditions": "rats; cited from earlier work", "values": [{"smiles": "COc1ccc(CNc2nc(N(CCO)CCO)nc3c2ncn3C(C)C)cc1", "note": "[CVT-313]", "inhibition of neointima formation": "greater than 80%"}]}]}
